Read-outs that look alike come from different tables or passages of the source.

We go through 5 compounds from patent publication US10168342B2, “Lipid probes and uses thereof” (THE SCRIPPS RESEARCH INSTITUTE, priority 2015, dated 2019).

Assay [1] has as its target AEA-DA lipid probe targets in Neuro2a cells (Mus musculus, UniProt Q8C0L6).
Assay [2] concerns the target T1, AEA-DA lipid probe targets in Neuro2a cells (Mus musculus, UniProt O35887).
T1 sequence (O35887 20-315): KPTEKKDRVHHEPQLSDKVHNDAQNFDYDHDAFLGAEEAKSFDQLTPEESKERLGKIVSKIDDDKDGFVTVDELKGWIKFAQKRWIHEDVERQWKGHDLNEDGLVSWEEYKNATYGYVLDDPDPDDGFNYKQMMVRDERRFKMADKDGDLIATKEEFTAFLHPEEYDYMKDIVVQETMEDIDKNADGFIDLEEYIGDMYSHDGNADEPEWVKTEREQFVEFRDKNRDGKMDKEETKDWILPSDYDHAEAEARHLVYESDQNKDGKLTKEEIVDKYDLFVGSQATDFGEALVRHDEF

In assay [3] the target is T2, AEA-DA lipid probe targets in Neuro2a cells (Mus musculus, UniProt Q8CFE6).
T2 sequence (Q8CFE6 1-504): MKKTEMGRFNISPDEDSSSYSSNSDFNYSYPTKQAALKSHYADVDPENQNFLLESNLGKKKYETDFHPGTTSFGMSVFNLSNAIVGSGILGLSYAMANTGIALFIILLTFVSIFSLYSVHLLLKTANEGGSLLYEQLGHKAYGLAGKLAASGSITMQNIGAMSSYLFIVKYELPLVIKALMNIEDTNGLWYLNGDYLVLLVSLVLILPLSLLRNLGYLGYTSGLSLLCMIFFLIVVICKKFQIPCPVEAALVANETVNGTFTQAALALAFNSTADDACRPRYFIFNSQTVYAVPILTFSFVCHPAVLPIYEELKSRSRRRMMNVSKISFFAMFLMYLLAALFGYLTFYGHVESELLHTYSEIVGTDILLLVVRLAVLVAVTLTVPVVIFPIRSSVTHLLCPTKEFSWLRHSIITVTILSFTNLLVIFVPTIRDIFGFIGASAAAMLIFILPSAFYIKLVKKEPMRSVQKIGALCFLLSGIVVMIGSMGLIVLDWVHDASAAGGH

Assay [4] deals with T3, AEA-DA lipid probe targets in Neuro2a cells (Mus musculus, UniProt Q8K2C9).
T3 sequence (Q8K2C9 1-362): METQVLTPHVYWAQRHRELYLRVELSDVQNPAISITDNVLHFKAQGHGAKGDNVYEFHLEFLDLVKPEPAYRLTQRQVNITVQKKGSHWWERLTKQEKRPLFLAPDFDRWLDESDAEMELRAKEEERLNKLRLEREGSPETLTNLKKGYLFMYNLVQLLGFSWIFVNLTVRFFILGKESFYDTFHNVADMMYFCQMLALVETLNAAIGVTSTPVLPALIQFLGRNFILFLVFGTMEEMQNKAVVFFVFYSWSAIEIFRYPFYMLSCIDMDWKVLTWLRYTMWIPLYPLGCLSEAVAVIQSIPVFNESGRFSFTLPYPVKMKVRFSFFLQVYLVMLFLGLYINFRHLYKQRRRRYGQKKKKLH

For assay [5], the target named is T4, AEA-DA lipid probe targets in Neuro2a cells (Mus musculus, UniProt Q61753).
T4 sequence (Q61753 1-533): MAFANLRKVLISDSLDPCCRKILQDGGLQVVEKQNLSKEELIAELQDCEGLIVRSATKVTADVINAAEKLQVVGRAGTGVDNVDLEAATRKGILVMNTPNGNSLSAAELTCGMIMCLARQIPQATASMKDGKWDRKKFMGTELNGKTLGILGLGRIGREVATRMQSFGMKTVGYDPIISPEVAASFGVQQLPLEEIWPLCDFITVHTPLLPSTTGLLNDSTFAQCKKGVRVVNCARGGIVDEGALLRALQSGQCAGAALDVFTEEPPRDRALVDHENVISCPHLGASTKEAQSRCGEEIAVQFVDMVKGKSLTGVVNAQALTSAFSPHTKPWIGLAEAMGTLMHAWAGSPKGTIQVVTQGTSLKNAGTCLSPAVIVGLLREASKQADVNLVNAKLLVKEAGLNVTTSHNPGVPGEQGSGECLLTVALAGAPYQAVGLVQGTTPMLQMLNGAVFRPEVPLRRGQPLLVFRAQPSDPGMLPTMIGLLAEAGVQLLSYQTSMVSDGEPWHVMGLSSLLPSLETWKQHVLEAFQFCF

Assay [6] addresses AEA-DA lipid probe targets in Neuro2a cells (Mus musculus, UniProt Q62261).
For assay [7], the target named is T5, AEA-DA lipid probe targets in Neuro2a cells (Mus musculus, UniProt Q80UU9).
T5 sequence (Q80UU9 1-217): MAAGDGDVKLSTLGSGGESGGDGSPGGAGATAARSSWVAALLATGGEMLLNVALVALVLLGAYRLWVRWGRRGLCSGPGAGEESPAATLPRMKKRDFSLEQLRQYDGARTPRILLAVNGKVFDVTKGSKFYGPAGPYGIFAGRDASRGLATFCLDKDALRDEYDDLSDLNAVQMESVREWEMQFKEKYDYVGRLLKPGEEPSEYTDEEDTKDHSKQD
The note with it: for SILAC ratio, PGRMC2 (Q80UU9): Neuro2a cells, AEA-DA probe.

Assay [8] has as its target T6, AEA-DA lipid probe targets in Neuro2a cells (Mus musculus, UniProt Q9CZS1).
T6 sequence (Q9CZS1 20-519): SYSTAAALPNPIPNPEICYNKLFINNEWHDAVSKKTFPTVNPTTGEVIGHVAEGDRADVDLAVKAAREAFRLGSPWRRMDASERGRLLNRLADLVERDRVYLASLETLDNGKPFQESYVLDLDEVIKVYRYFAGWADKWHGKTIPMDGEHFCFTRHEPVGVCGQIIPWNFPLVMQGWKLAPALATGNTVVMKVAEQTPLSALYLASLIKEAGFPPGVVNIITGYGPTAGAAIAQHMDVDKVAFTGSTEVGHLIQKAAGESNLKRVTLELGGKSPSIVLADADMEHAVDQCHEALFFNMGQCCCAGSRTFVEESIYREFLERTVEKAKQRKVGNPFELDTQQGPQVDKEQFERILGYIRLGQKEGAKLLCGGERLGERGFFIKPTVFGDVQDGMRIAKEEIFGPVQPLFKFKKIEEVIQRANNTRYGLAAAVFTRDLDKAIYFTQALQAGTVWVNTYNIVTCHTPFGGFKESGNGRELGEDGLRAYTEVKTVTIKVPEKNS

AEA-DA lipid probe targets in Neuro2a cells (Mus musculus, UniProt Q8C0L6), sequence (Q8C0L6 whole entry): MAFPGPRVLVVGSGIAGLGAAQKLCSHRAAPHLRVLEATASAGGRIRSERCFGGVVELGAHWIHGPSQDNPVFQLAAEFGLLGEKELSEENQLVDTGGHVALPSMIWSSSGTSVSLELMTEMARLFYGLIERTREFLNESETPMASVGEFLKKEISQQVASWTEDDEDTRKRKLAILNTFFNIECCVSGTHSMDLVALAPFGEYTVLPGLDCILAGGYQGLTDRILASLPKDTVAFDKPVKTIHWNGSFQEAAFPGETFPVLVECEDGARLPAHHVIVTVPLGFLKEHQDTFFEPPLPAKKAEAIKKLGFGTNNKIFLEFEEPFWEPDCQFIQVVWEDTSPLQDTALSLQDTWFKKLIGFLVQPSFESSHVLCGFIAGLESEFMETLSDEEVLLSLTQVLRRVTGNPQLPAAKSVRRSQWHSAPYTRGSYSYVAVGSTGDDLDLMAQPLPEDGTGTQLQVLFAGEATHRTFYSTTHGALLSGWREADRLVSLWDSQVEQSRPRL
AEA-DA lipid probe targets in Neuro2a cells (Mus musculus, UniProt Q62261), sequence (Q62261 whole entry): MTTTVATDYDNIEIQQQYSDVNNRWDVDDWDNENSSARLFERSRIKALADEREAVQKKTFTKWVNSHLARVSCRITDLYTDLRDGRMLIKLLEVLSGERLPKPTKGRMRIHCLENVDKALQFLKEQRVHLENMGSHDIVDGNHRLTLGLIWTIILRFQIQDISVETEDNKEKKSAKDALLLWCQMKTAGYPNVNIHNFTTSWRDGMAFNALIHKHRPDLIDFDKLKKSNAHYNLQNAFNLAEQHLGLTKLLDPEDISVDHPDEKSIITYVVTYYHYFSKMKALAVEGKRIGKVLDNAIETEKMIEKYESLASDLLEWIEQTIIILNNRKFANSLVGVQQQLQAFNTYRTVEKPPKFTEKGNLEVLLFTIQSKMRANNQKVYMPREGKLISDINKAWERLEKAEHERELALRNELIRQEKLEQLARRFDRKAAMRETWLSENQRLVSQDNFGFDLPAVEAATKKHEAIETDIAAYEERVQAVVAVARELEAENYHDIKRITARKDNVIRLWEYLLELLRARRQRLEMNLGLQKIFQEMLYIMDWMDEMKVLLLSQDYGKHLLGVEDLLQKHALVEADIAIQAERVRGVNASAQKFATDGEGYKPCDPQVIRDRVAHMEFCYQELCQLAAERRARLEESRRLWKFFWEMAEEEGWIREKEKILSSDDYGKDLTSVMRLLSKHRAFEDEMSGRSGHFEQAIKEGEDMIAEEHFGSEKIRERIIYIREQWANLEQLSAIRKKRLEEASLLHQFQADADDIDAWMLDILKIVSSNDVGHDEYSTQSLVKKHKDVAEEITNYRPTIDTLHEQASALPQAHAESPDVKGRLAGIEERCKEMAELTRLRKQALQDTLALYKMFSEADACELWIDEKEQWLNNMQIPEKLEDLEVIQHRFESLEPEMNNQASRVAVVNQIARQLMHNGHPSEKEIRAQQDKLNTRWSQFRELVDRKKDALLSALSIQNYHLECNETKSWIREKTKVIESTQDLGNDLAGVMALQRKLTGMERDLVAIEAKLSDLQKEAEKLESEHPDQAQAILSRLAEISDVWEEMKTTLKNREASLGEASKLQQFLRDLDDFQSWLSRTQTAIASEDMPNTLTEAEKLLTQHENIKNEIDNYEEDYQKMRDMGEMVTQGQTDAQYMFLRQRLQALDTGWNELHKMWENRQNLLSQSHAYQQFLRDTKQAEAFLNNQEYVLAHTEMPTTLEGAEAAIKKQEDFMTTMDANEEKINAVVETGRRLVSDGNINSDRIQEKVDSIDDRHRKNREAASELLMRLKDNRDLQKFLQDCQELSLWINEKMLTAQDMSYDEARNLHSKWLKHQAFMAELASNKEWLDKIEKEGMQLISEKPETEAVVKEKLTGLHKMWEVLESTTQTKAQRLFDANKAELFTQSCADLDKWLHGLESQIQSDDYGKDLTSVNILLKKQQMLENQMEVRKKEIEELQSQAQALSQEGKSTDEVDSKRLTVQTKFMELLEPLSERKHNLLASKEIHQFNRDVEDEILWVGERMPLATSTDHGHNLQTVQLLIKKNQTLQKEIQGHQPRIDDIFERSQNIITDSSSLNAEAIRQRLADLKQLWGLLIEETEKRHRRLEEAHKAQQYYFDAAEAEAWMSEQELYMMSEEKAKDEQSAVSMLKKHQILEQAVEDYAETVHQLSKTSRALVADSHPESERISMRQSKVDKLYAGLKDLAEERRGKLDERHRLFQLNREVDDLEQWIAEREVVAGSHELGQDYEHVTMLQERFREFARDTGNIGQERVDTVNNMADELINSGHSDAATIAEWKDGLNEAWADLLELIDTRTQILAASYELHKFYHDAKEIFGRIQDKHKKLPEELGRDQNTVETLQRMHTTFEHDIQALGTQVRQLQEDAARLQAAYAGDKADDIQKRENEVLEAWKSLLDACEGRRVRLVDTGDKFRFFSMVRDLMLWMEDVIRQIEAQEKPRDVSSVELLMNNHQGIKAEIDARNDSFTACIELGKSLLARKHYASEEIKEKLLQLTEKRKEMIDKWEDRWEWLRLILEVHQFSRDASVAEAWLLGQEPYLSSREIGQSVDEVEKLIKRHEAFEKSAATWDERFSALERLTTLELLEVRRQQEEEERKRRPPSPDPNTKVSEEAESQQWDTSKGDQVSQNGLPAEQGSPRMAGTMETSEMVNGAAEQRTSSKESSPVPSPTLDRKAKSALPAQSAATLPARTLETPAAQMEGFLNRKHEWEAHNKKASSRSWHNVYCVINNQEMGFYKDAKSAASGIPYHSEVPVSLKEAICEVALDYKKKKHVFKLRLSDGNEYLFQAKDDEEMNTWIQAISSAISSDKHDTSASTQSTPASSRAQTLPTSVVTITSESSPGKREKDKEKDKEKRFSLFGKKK

Consider `C=CCN(C)CCCCCCOc1ccc(C(=O)c2ccc(Br)cc2)c(F)c1` [Ro 48-8071, reference compound], for which, in assay [1] (competitor 25 μM), the “SILAC ratio, Paox” value turned out to be 2.4. Also, in assay [2] (competitor 25 μM), the “SILAC ratio, Calu” value came out at 0.9. For the same compound, the “SILAC ratio Slc38a2” value in assay [3] (competitor 25 μM) is 0.7. Moreover, the “SILAC ratio ptplad1” value in assay [4] (competitor 25 μM) came out at 1.4. Moreover, the “SILAC ratio Phgdh” value in assay [5] (competitor 25 μM) is 1.0. Also, the “SILAC ratio Sptbn1” value in assay [6] (competitor 25 μM) is recorded as 1.0. In assay [7] (competitor 25 μM), the “SILAC ratio, PGRMC2 (Q80UU9)” value is 1.3 and the “SILAC ratio, Pgrmc2” value is 1.3. Moreover, in assay [8] (competitor 25 μM), the “SILAC ratio, Aldh1b1” value stood at 1.6.
Turning to `CN1CCN(C(=O)c2[nH]c3ccc([N+](=O)[O-])cc3c2-c2ccccc2)CC1` [MJN228, (4-Methylpiperazin-1-yl)(5-nitro-3-phenyl-1H-indol-2-yl)methanone], the “SILAC ratio, Paox” value was found to be 2.1 in assay [1] (competitor 10 μM), 3.2 in assay [1] (competitor 25 μM), 4.5 in assay [1] (competitor 50 μM) and 13.5 in assay [1] (competitor 100 μM). For the same compound, the “SILAC ratio, Calu” value in assay [2] (competitor 10 μM) came to 1.1; in assay [2] (competitor 25 μM) it was 1.5; in assay [2] (competitor 100 μM) it was 1.8. In addition, the “SILAC ratio Slc38a2” value is 1.2 in assay [3] (competitor 10 μM), 1.3 in assay [3] (competitor 25 μM) and 1.2 in assay [3] (competitor 100 μM). Besides, the “SILAC ratio ptplad1” value in assay [4] (competitor 10 μM) was determined as 1.3; in assay [4] (competitor 25 μM), 1.7; in assay [4] (competitor 50 μM), 1.9; in assay [4] (competitor 100 μM) it was 2.3. In addition, the “SILAC ratio Phgdh” value in assay [5] (competitor 10 μM) is given as 1.2; in assay [5] (competitor 25 μM) it was 1.1; in assay [5] (competitor 50 μM) it was 0.9; in assay [5] (competitor 100 μM), 1.1. For the same compound, the “SILAC ratio Sptbn1” value in assay [6] (competitor 10 μM) worked out at 1.0; in assay [6] (competitor 25 μM), 1.2; in assay [6] (competitor 100 μM) it was 1.3. Further, the “SILAC ratio, PGRMC2 (Q80UU9)” value in assay [7] (competitor 25 μM) is recorded as 1.5. For the same compound, the “SILAC ratio, Pgrmc2” value is recorded as 1.2 in assay [7] (competitor 10 μM), 1.5 in assay [7] (competitor 25 μM), 1.7 in assay [7] (competitor 50 μM) and 2.0 in assay [7] (competitor 100 μM). Moreover, the “SILAC ratio, Aldh1b1” value in assay [8] (competitor 10 μM) is on record as 1.2; in assay [8] (competitor 25 μM), 1.6; in assay [8] (competitor 50 μM), 2.0; in assay [8] (competitor 100 μM) it was 2.6.
Consider `CCCCC/C=C\C/C=C\C/C=C\C/C=C\CCCC(=O)NCCO` [AEA, anandamide, reference compound], for which, in assay [1] (competitor 200 μM), the “SILAC ratio, Paox” value turned out to be 7.5. For the same compound, the “SILAC ratio, Calu” value in assay [2] (competitor 200 μM) came out at 1.0. The “SILAC ratio Slc38a2” value in assay [3] (competitor 200 μM) is 1.5. In addition, the “SILAC ratio ptplad1” value in assay [4] (competitor 200 μM) was 1.8. In addition, the “SILAC ratio Phgdh” value in assay [5] (competitor 200 μM) stood at 1.2. Also, the “SILAC ratio Sptbn1” value in assay [6] (competitor 200 μM) was 1.1. In addition, in assay [7] (competitor 200 μM), the “SILAC ratio, PGRMC2 (Q80UU9)” value was 2.0 and the “SILAC ratio, Pgrmc2” value stood at 2.0. Besides, the “SILAC ratio, Aldh1b1” value in assay [8] (competitor 200 μM) was found to be 2.7.
Consider `CN1CCN(C(=O)c2c(-c3ccccc3)c3cc([N+](=O)[O-])ccc3n2C)CC1` [KML110, (1-Methyl-5-nitro-3-phenyl-1H-indol-2-yl)(4-methylpiperazin-1-yl)methanone], for which the “SILAC ratio, Paox” value in assay [1] (competitor 25 μM) is given as 2.9. The “SILAC ratio, Calu” value in assay [2] (competitor 25 μM) is 1.1. Also, the “SILAC ratio Slc38a2” value in assay [3] (competitor 25 μM) came out at 1.2. The “SILAC ratio ptplad1” value in assay [4] (competitor 25 μM) is listed as 1.7. Besides, the “SILAC ratio Phgdh” value in assay [5] (competitor 25 μM) is listed as 1.5. Besides, the “SILAC ratio Sptbn1” value in assay [6] (competitor 25 μM) is on record as 1.2. Further, in assay [7] (competitor 25 μM), the “SILAC ratio, Pgrmc2” value stood at 1.6. Further, in assay [8] (competitor 25 μM), the “SILAC ratio, Aldh1b1” value is reported as 1.7.
On to `O=C(/C=C/c1cccnc1)NCCCCC1CCN(C(=O)c2ccccc2)CC1` [FK-866, reference compound], for which the “SILAC ratio, Paox” value in assay [1] (competitor 25 μM) is 3.2. In addition, the “SILAC ratio, Calu” value in assay [2] (competitor 25 μM) was 1.0. Moreover, the “SILAC ratio Slc38a2” value in assay [3] (competitor 25 μM) turned out to be 1.0. Further, the “SILAC ratio ptplad1” value in assay [4] (competitor 25 μM) is on record as 1.2. Moreover, the “SILAC ratio Phgdh” value in assay [5] (competitor 25 μM) stood at 1.3. In addition, the “SILAC ratio Sptbn1” value in assay [6] (competitor 25 μM) is given as 1.3. Also, in assay [7] (competitor 25 μM), the “SILAC ratio, PGRMC2 (Q80UU9)” value is reported as 1.2 and the “SILAC ratio, Pgrmc2” value amounted to 1.2. Moreover, the “SILAC ratio, Aldh1b1” value in assay [8] (competitor 25 μM) turned out to be 1.3.
